Ends that are not written are not given here.
B1: HAG2 (peptide)
peptide: H-AGWLADRSVRYPI-OH
notes: Synthetic peptide with free amino and carboxy termini; The residue range on HAG is not tied to this label
B2: HAG3 (peptide)
peptide: H-AGWLADGSLRYPI-OH
notes: as for B1

What was measured:
PBMC from RA patients = experiment: Proliferative responses of PBMC from RA patients ([3H]thymidine incorporation); type: cell-based, human; details: peptide 50 μg/ml, mean of three or four measurements
[1] = target: T1, HLA-DR4 (DRB1*0401) molecules, affinity purified (human); experiment: semi-quantitative competition with biotinylated IHA(307-319)F for purified HLA-DR; relative IC50 grade read by eye from ECL blot
T1 construct: mature; Used at 0.05-5 uM in the assay

[2] = target: T1, HLA-DR4 (DRB1*0401) molecules, affinity …; experiment: semi-quantitative competition with biotinylated IHA(307-319)F for purified HLA-DR; range taken from the table legend for grade ++
[3] = target: T1, HLA-DR4 (DRB1*0401) molecules, affinity …; experiment: semi-quantitative competition with biotinylated IHA(307-319)F for purified HLA-DR; range taken from the table legend for grade +

| Molecule | Proliferative response of PBMC, [3H]TdR incorporation (PBMC from RA patients; donor 191 (RA), background 320) [count per 5 min] | Proliferative response of PBMC, [3H]TdR incorporation (PBMC from RA patients; donor 209 (RA), background 405) [count per 5 min] | relative binding affinity IC50 (eIC50) [1] [µM] | IC50 [2] [µM] | other results |
| --- | --- | --- | --- | --- | --- |
| AGWLADGSLRYPI [HAG3] | 233 | 1094 |  |  |  |
| AGWLADRSVRYPI [HAG2] | 1061 | 1115 |  |  |  |
| AGWLSDGSVQYPI [HCLP1] |  | 1503 |  |  | Proliferative response of PBMC, [3H]TdR incorporation (PBMC from RA patients; donor 227 (RA), background 833): 1964 count per 5 min |
| B1 |  |  | 1 to 10 | 1 to 10 |  |
| B2 |  |  | 1 to 10 | 1 to 10 |  |
| AGWLSDGSVQYPI (also called HCIP1) [HCLP1] |  |  | 10 to 100 |  | IC50 [3]: 10 to 100 µM |
